In ChEMBL document CHEMBL5131466, “Discovery and development of labdane-oxindole hybrids as small-molecule inhibitors against chikungunya virus infection” (Eur J Med Chem, 2022):

Columns and labels:
[1] = Cytotoxicity against human HeLa CCL2 cells assessed as reduction in cell viability measured after 24 hrs by Alamar blue assay; assay type: functional
Chikungunya virus [2] = assay: Antiviral activity against CHIKV 122508 infected in […] BHK-21 cells assessed as reduction in viral titer at MOI of 1 measured after 24 hpi by viral plaque assay; assay type: functional, organism-based; conditions: Chikungunya virus, 122508, BHK-21
[3] = Selectivity index, ratio of CC50 for cytotoxicity against human HeLa CCL2 cells to EC50 for antiviral activity against CHIKV 122508 infected in human HeLa CCL2 cells; assay type: toxicity, cell-based; conditions: read-out: Ratio CC50/EC50
Chikungunya virus [4] = assay: Antiviral activity against CHIKV 122508 infected in human HeLa CCL2 cells assessed as inhibition of viral replication at MOI of 1 at 10 uM incubated for 24 hpi by viral plaque assay; assay type: functional; parameters: unit not given here; conditions: time 24 hrs
Chikungunya virus [5] = assay: Antiviral activity against CHIKV 122508 infected in human HeLa CCL2 cells assessed as inhibition of viral replication at MOI of 1 at 100 uM incubated for 24 hpi by viral plaque assay; assay type: functional; parameters: unit not given here; conditions: time 24 hrs
Chikungunya virus [6] = assay: Antiviral activity against CHIKV 122508 infected in human HeLa CCL2 cells assessed as inhibition of viral replication at MOI of 1 at 80 uM incubated for 24 hpi by viral plaque assay; assay type: functional; parameters: unit not given here; conditions: time 24 hrs

Compound	CC50 [1] [µM]	EC50 (Chikungunya virus [2]) [nM]	selectivity ratio [3]	Activity (Chikungunya virus [4])	Activity (Chikungunya virus [5])	Activity (Chikungunya virus [6])
C=C1CC[C@H]2C(C)(C)CCC[C@]2(C)[C@H]1C/C=C1/C(=O)NC(=O)c2ccccc21	50.5	3460	15	–	–	–
C=C1CC[C@H]2C(C)(C)CCC[C@]2(C)[C@H]1C/C=C1/C(=O)Nc2c(Br)cccc21	> 100	1270	> 79	–	–	–
CC1=CC[C@H]2C(C)(C)CCC[C@]2(C)[C@H]1C/C=C1\C(=O)Nc2c(Cl)cccc21	194	9350	21	–	–	–
C=C1CC[C@H]2C(C)(C)CCC[C@]2(C)[C@H]1C/C=C1\C(=O)Nc2c(Cl)cccc21	59.7	10500	5.7	–	–	–
C=C1[C@H](O)C[C@H]2C(C)(C)CCC[C@]2(C)[C@H]1C/C=C1/C(=O)Nc2ccccc21	15	1290	12	–	–	–
C=C1CC[C@H]2C(C)(C)CCC[C@]2(C)[C@H]1C/C=C1\C(=O)Nc2cc(Br)ccc21	19.6	7500	2.6	–	–	–
C=C1CC[C@H]2C(C)(C)CCC[C@]2(C)[C@H]1C/C=C1\C(=O)Nc2c(OC)cccc21	23.4	30	780	1.5	–	–
C=C1CC[C@H]2C(C)(C)CCC[C@]2(C)[C@H]1C/C=C1/C(=O)Nc2ccc(Cl)cc21	36.1	1300	27	–	–	–
C=C1CC[C@H]2C(C)(C)CCC[C@]2(C)[C@H]1C/C=C1\C(=O)Nc2ccc(F)cc21	15.7	6620	2.4	–	–	–
C=C1CC[C@H]2C(C)(C)CCC[C@]2(C)[C@H]1C/C=C1\C(=O)Nc2cc(F)ccc21	14.2	210	67	–	–	–
CC1=CC[C@H]2C(C)(C)CCC[C@]2(C)[C@H]1C/C=C1/C(=O)Nc2c(Cl)cccc21	> 100	6560	1.5	–	–	–
C=C1CC[C@H]2C(C)(C)CCC[C@]2(C)[C@H]1C/C=C1/C(=O)Nc2ccc(C)cc21	15.2	20	758	3.7	–	–
C=C1CC[C@H]2C(C)(C)CCC[C@]2(C)[C@H]1C/C=C1\C(=O)NC(=O)c2ccccc21	> 100	290	> 347	–	3.8	–
C=C1CC[C@H]2C(C)(C)CCC[C@]2(C)[C@H]1C/C=C1/C(=O)Nc2c1cccc2C(F)(F)F	> 100	1640	> 61	–	–	–
C=C1CC[C@H]2C(C)(C)CCC[C@]2(C)[C@H]1C/C=C1/C(=O)Nc2cc(Cl)ccc21	5.7	–	–	–	–	–
C=C1CC[C@H]2C(C)(C)CCC[C@]2(C)[C@H]1C/C=C1/C(=O)Nc2cc(C(F)(F)F)ccc21	77.2	7410	10	–	–	–
C=C1CC[C@@H]2[C@](C)(CO)[C@H](O)CC[C@@]2(C)[C@@H]1C/C=C1\SC(=S)NC1=O	> 100	–	–	–	–	–
C=C1CC[C@H]2C(C)(C)CCC[C@]2(C)[C@H]1C/C=C1\C(=O)Nc2ccccc21	> 100	7230	> 14	–	–	–
C=C1CC[C@H]2C(C)(C)CCC[C@]2(C)[C@H]1C/C=C1/C(=O)Nc2ccc(Br)cc21	77.2	7400	10	–	–	–
C=C1CC[C@H]2C(C)(C)CCC[C@]2(C)[C@H]1C/C=C1\C(=O)Nc2c(F)cccc21	26.9	80	336	2	–	–
C=C1CC[C@H]2C(C)(C)CCC[C@]2(C)[C@H]1C/C=C1/C(=O)Nc2ccccc21	41.6	2800	15	–	–	–
C=C1CC[C@H]2C(C)(C)CCC[C@]2(C)[C@H]1C/C=C1\C(=O)Nc2ccc(Cl)cc21	18.3	4100	4.5	–	–	–
C=C1CC[C@H]2C(C)(C)CCC[C@]2(C)[C@H]1C/C=C1/C(=O)Nc2ccc(C(F)(F)F)cc21	6.66	–	–	–	–	–
C=C1CC[C@H]2C(C)(C)CCC[C@]2(C)[C@H]1C/C=C1\C(=O)Nc2cc(C)ccc21	37.2	11600	3.2	–	–	–
C=C1CC[C@H]2C(C)(C)CCC[C@]2(C)[C@H]1C/C=C1\C(=O)Nc2c1cccc2C(F)(F)F	> 100	8770	> 11	–	–	–
C=C1CC[C@@H]2[C@](C)(CO)[C@H](O)CC[C@@]2(C)[C@@H]1C/C=C1/C(=O)N(C)c2ccccc21	> 100	–	–	–	–	–

Compound	CC50 [1] [µM]	EC50 (Chikungunya virus [2]) [nM]	selectivity ratio [3]	Activity (Chikungunya virus [4])	Activity (Chikungunya virus [5])	Activity (Chikungunya virus [6])
C=C1CC[C@H]2C(C)(C)CCC[C@]2(C)[C@H]1C/C=C1\C(=O)Nc2cccc(Cl)c21	37.2	5400	6.8	–	–	–
C=C1CC[C@H]2C(C)(C)CCC[C@]2(C)[C@H]1C/C=C1\C(=O)Nc2c(Br)cccc21	> 100	1120	> 90	–	2.3	–
C=C1[C@H](O)C[C@H]2C(C)(C)CCC[C@]2(C)[C@H]1C/C=C1\C(=O)Nc2c(Cl)cccc21	13.4	2	6700	2.1	–	–
C=C1CC[C@H]2C(C)(C)CCC[C@]2(C)[C@H]1C/C=C1/C(=O)Nc2c(OC)cccc21	90.2	150	602	–	–	2.6
C=C1CC[C@H]2C(C)(C)CCC[C@]2(C)[C@H]1C/C=C1\C(=O)Nc2c(C)cccc21	> 100	150	> 667	–	2.8	–
C=C1CC[C@H]2C(C)(C)CCC[C@]2(C)[C@H]1C/C=C1\C(=O)Nc2cc(C(F)(F)F)ccc21	52.8	3070	17	–	–	–
C=C1CC[C@H]2C(C)(C)CCC[C@]2(C)[C@H]1C/C=C1\C(=O)Nc2ccc(C(F)(F)F)cc21	> 16.2	2630	> 6.1	–	–	–
C=C1CC[C@H]2C(C)(C)CCC[C@]2(C)[C@H]1C/C=C1/C(=O)Nc2cc(Br)ccc21	8.3	–	–	–	–	–
C=C1CC[C@@H]2[C@](C)(CO)[C@H](O)CC[C@@]2(C)[C@@H]1C/C=C1/C(=O)N(C(C)=O)c2ccccc21	> 100	–	–	–	–	–
C=C1CC[C@@H]2[C@](C)(CO)[C@H](O)CC[C@@]2(C)[C@@H]1C/C=C1\C(=O)Nc2ccccc21	> 100	5850	> 17	–	–	–
C=C1CC[C@H]2C(C)(C)CCC[C@]2(C)[C@H]1C/C=C1\C(=O)Nc2cccc(C)c21	49.9	720	69	–	–	–
C=C1CC[C@@H]2[C@](C)(CO)[C@H](O)CC[C@@]2(C)[C@@H]1C/C=C1\C(=O)N(C(C)=O)c2ccccc21	> 100	–	–	–	–	–
CC1=CC[C@H]2C(C)(C)CCC[C@]2(C)[C@H]1C/C=C1\C(=O)Nc2ccccc21	17	5690	3	–	–	–
C=C1CC[C@@H]2[C@](C)(COC(C)=O)[C@H](OC(C)=O)CC[C@@]2(C)[C@@H]1C/C=C1/C(=O)Nc2ccccc21	> 100	7400	> 14	–	–	–
CC1=CC[C@H]2C(C)(C)CCC[C@]2(C)[C@H]1C/C=C1/C(=O)Nc2ccccc21	18.6	3220	5.8	–	–	–
C=C1CC[C@H]2C(C)(C)CCC[C@]2(C)[C@H]1C/C=C1\C(=O)Nc2cc(Cl)ccc21	15.6	–	–	–	–	–
C=C1CC[C@H]2C(C)(C)CCC[C@]2(C)[C@H]1C/C=C1/C(=O)Nc2c(C)cccc21	142	620	230	–	–	1.3
C=C1CC[C@@H]2[C@](C)(COC(C)=O)[C@H](OC(C)=O)CC[C@@]2(C)[C@@H]1C/C=C1\C(=O)Nc2ccccc21	> 100	8300	> 12	–	–	–
C=C1CC[C@@H]2[C@](C)(CO)[C@H](O)CC[C@@]2(C)[C@@H]1CCC1C(=O)Nc2ccccc21 (some centres not stated)	> 100	–	–	–	–	–
C=C1CC[C@H]2C(C)(C)CCC[C@]2(C)[C@H]1C/C=C1/C(=O)Nc2cc(F)ccc21	9	460	20	–	–	–
C=C1CC[C@@H]2[C@](C)(CO)[C@H](O)CC[C@@]2(C)[C@@H]1C/C=C1\C(=O)N(C)c2ccccc21	> 100	–	–	–	–	–
C=C1CC[C@H]2C(C)(C)CCC[C@]2(C)[C@H]1C/C=C1\C(=O)Nc2ccc(Br)cc21	20.6	1800	11	–	–	–
C=C1CC[C@H]2C(C)(C)CCC[C@]2(C)[C@H]1C/C=C1\C(=O)Nc2c(Cl)cc(F)cc21	> 100	70	> 1350	–	2.6	–
C=C1CC[C@H]2C(C)(C)CCC[C@]2(C)[C@H]1C/C=C1/C(=O)Nc2c(Cl)cc(F)cc21	134	80	1680	–	–	2.7
C=C1[C@H](O)C[C@H]2C(C)(C)CCC[C@]2(C)[C@H]1C/C=C1\C(=O)Nc2ccccc21	20	1410	14	–	–	–
C=C1CC[C@H]2C(C)(C)CCC[C@]2(C)[C@H]1C/C=C1\C(=O)Nc2cccc(Br)c21	27.1	440	62	–	–	–
